For 13 molecules, TGI and GI50 results are on record in PubChem BioAssay (NCI).

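Each compound was tested at five concentrations against cells in 96-well plates for 48 hours. At the GI50, growth is halved. Definition used: TGI = concentration required for complete inhibition of growth.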

Some test systems named below: CCRF-CEM leukemia; COLO 205 colon; HCT-15 colon; HL-60(TB) leukemia; MOLT-4 leukemia; NCI-H226 lung; NCI-H23 lung; TK-10 renal; UACC-62 melanoma; UO-31 renal.
Assay in all cases: growth of human tumour cells (NCI), 48 h

With `CN1CCN(c2ccc(-n3cc(C(=O)O)c(=O)c4cc(F)c(N5CCN(C)CC5)cc43)nc2)CC1`, the TGI with CCRF-CEM leukemia, with COLO 205 colon, in the assay on HCT-15 colon, with HL-60(TB) leukemia, in the assay on MOLT-4 leukemia and in the assay on NCI-H226 lung was greater than 100 µM in each case. For the same molecule, the TGI with NCI-H23 lung, with TK-10 renal, in the assay with UACC-62 melanoma and in the assay with UO-31 renal was greater than 100 µM in each case.
In the case of `O=C(/C(=C/c1cccs1)c1ccccc1)c1ccccc1`, the TGI in the assay on CCRF-CEM leukemia, with COLO 205 colon, in the assay with HCT-15 colon, in the assay with HL-60(TB) leukemia, with MOLT-4 leukemia and in the assay with NCI-H226 lung was greater than 100 µM in each case. The TGI in the assay on NCI-H23 lung, in the assay on TK-10 renal, in the assay on UACC-62 melanoma and in the assay on UO-31 renal was greater than 100 µM throughout.
As to `O=C(O)c1cc(Sc2ccc([N+](=O)[O-])c(C(=O)O)c2)ccc1[N+](=O)[O-]`, the TGI in the assay with CCRF-CEM leukemia, in the assay with COLO 205 colon, in the assay with HCT-15 colon, with HL-60(TB) leukemia, with MOLT-4 leukemia and in the assay on NCI-H226 lung was greater than 100 µM in each case. Also, the TGI in the assay with NCI-H23 lung, with TK-10 renal, in the assay with UACC-62 melanoma and in the assay with UO-31 renal was greater than 100 µM throughout. Besides, in the assay with NCI-H23 lung, the GI50 was greater than 100 µM.
In the case of `COC(=O)CCC(=O)c1ccc2c(c1)CC1(C2)Cc2ccc3c(c2C1)CCCC3=O` (stereo unspecified), the TGI with CCRF-CEM leukemia is 11 µM; in the assay with COLO 205 colon, greater than 67.6 µM; in the assay with HCT-15 colon it was greater than 67.4 µM; in the assay on HL-60(TB) leukemia it was 13.4 µM; in the assay with MOLT-4 leukemia, 18.2 µM; in the assay on NCI-H226 lung, 85.6 µM. Besides, the TGI is greater than 76.5 µM in the assay on NCI-H23 lung, greater than 100 µM in the assay with TK-10 renal, greater than 100 µM with UACC-62 melanoma and greater than 59.3 µM in the assay on UO-31 renal.
As to `O=C1OC(c2ccccc2)N/C1=C\c1ccc2c(c1)OCO2` (stereo unspecified), the TGI with CCRF-CEM leukemia was 99.6 µM; in the assay on COLO 205 colon it was greater than 100 µM; with HCT-15 colon, greater than 100 µM; with HL-60(TB) leukemia it was 0.684 µM; with MOLT-4 leukemia, greater than 100 µM; in the assay with NCI-H226 lung, greater than 100 µM. The TGI with NCI-H23 lung, with TK-10 renal, with UACC-62 melanoma and with UO-31 renal was greater than 100 µM throughout.
As for `CC[C@]12C=CCN3CCC4(c5cc([C@@]6(C(=O)OC)CC7CN(CCc8c6[nH]c6ccccc86)C[C@@H]6CCC[C@H]76)c(OC)cc5N(C)C4[C@](O)(C(=O)OC)C1OC(C)=O)C32` (stereo partly specified), the TGI is greater than 10 µM in the assay on CCRF-CEM leukemia; 0.375 µM in the assay on COLO 205 colon; greater than 10 µM with HCT-15 colon; 0.289 µM in the assay on HL-60(TB) leukemia; 6.02 µM in the assay with MOLT-4 leukemia; 1.5 µM with NCI-H226 lung. Besides, the TGI is 1.42 µM in the assay with NCI-H23 lung, greater than 10 µM in the assay on TK-10 renal, greater than 10 µM in the assay on UACC-62 melanoma and greater than 10 µM in the assay on UO-31 renal.
As to `O=C(N/C(=C\c1ccccc1)C1Nc2ccccc2C(=O)O1)c1ccccc1` (stereo unspecified), the TGI was 46.5 µM with CCRF-CEM leukemia; 80.9 µM in the assay with COLO 205 colon; greater than 100 µM in the assay on HCT-15 colon; 36.1 µM in the assay on HL-60(TB) leukemia; 45.1 µM with MOLT-4 leukemia; greater than 100 µM in the assay on NCI-H226 lung. The TGI in the assay on NCI-H23 lung was greater than 100 µM; with TK-10 renal, greater than 100 µM; in the assay on UACC-62 melanoma, greater than 100 µM; with UO-31 renal, 44.2 µM.
With `CC1(C)C2CCC1(CC(=O)O)C(Cl)C2` (stereo unspecified), the TGI in the assay with CCRF-CEM leukemia, in the assay on COLO 205 colon, with HCT-15 colon, in the assay with HL-60(TB) leukemia, in the assay on MOLT-4 leukemia and in the assay on NCI-H226 lung was greater than 100 µM in each case. Moreover, the TGI with NCI-H23 lung, in the assay with TK-10 renal, in the assay on UACC-62 melanoma and in the assay with UO-31 renal was greater than 100 µM in each case.
Consider `CCCCCCCC/C=C/CCCCCCCC1CC(O)C(=O)O1` (stereo unspecified), for which the TGI with CCRF-CEM leukemia was greater than 100 µM; in the assay with COLO 205 colon, greater than 100 µM; with HCT-15 colon, greater than 100 µM; in the assay with HL-60(TB) leukemia it was 88.3 µM; in the assay on MOLT-4 leukemia it was greater than 100 µM; in the assay with NCI-H226 lung it was greater than 100 µM. Moreover, the TGI in the assay on NCI-H23 lung, in the assay on TK-10 renal, in the assay on UACC-62 melanoma and in the assay on UO-31 renal was greater than 100 µM throughout.
On to `CCOC(=O)/C=C/c1ccccn1`, for which the TGI in the assay on CCRF-CEM leukemia, in the assay on COLO 205 colon, in the assay on HCT-15 colon, in the assay with HL-60(TB) leukemia, in the assay with MOLT-4 leukemia and in the assay with NCI-H226 lung was greater than 100 µM throughout. Further, the TGI in the assay on NCI-H23 lung, in the assay with TK-10 renal, in the assay with UACC-62 melanoma and with UO-31 renal was greater than 100 µM in each case.
For the molecule `O=C(c1ccccc1)c1c(CNCc2ccccc2)n(C(=O)c2ccccc2)c2ccccc12`, the TGI in the assay on CCRF-CEM leukemia was greater than 100 µM; with COLO 205 colon, greater than 100 µM; in the assay with HCT-15 colon it was greater than 100 µM; with HL-60(TB) leukemia, 98.7 µM; in the assay with MOLT-4 leukemia, 65.5 µM; with NCI-H226 lung, greater than 100 µM. Besides, the TGI in the assay on NCI-H23 lung is greater than 100 µM; in the assay with TK-10 renal it was greater than 100 µM; in the assay with UACC-62 melanoma it was greater than 100 µM; in the assay on UO-31 renal it was 56.1 µM.
As for `O=C(O)C(F)(OC(F)(F)C(F)(OC(F)(F)C(F)(F)C(F)(F)F)C(F)(F)F)C(F)(F)F` (stereo unspecified), the TGI with CCRF-CEM leukemia, with COLO 205 colon, with HCT-15 colon, in the assay with HL-60(TB) leukemia, in the assay with MOLT-4 leukemia and in the assay with NCI-H226 lung was greater than 100 µM throughout. Besides, the TGI with NCI-H23 lung, in the assay on TK-10 renal, in the assay on UACC-62 melanoma and with UO-31 renal was greater than 100 µM in each case.
`CC(=O)OCc1cn(S(=O)(=O)c2ccc(C)cc2)cn1`: the TGI in the assay with CCRF-CEM leukemia, with COLO 205 colon, in the assay with HCT-15 colon, with HL-60(TB) leukemia, with MOLT-4 leukemia and with NCI-H226 lung was greater than 100 µM in each case. Further, the TGI in the assay with NCI-H23 lung, in the assay on TK-10 renal, in the assay on UACC-62 melanoma and in the assay with UO-31 renal was greater than 100 µM each time.
